This passage reports EC50 results from patent US7713971B2, “1,2,4-triazine derivatives, preparation and use thereof in human therapy” (Pierre Fabre Medicament, priority 2005, dated 2010).

pEC50: −log10 of the molar value.

The target in this assay is T1, human PPARα (Homo sapiens, UniProt Q07869).
T1 construct: expressed in transfected cells; host or cells: Cos-7 cells (ATCC, CRL-1651)
T1 sequence (Q07869 239-466 limits assumed): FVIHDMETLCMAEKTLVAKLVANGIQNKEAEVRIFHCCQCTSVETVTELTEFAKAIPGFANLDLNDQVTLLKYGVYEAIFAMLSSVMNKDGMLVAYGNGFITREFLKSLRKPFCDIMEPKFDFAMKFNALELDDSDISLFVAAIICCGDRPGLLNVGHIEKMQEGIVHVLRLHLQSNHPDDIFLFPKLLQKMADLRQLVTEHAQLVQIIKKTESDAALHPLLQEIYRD
In words: Reporter gene transactivation, hPPAR-GAL4 alpha. It counts as cell-based. The following applies: transfected Cos-7 cells, Gal-4 luciferase reporter, 24 hours treatment. A general note: Reporter assays use an easily measured gene product as a stand-in for the process of interest.
In the case of `CCOC(=O)C(C)(C)Oc1ccc(CCNc2nn(CCCC(F)(F)F)c(=O)n(C)c2=O)cc1` [Example 102, Ethyl 2-methyl-2-(4-{2-[4-methyl-3,5-dioxo-2-(4,4,4-trifluoro-butyl)-2,3,4,5-tetrahydro-[1,2,4]triazin-6-ylamino]-ethyl}-phenoxy)-propionate], the pEC50 (in general, the negative decadic logarithm of the EC50, by convention in mol/L) is below 5.00.
Next, `CCOC(=O)C(C)(C)Oc1ccc(COc2nn(C)c(=O)n(CCCC(F)(F)F)c2=O)cc1` [Example 21, Ethyl 2-methyl-2-{4-[2-methyl-3,5-dioxo-4-(4,4,4-trifluoro-butyl)-2,3,4,5-tetrahydro-[1,2,4]triazin-6-yloxymethyl]-phenoxy}-propionate]: 5.00 to 5.52.
`CCCCCCCn1c(=O)c(NCCc2cccc(OC(C)(C)C(=O)OCC)c2)nn(CCCC(F)(F)F)c1=O` [Example 60, Ethyl 2-(3-{2-[4-heptyl-3,5-dioxo-2-(4,4,4-trifluoro-butyl)-2,3,4,5-tetrahydro-[1,2,4]triazin-6-ylamino]-ethyl}-phenoxy)-2-methyl-propionate] had a pEC50 below 5.00.
The compound `CCCCCCCn1c(=O)c(N(CCc2ccccc2)CCc2ccc(OC(C)(C)C(=O)OCC)cc2)nn(C)c1=O` [Example 116, Ethyl 2-(4-{2-[(4-heptyl-2-methyl-3,5-dioxo-2,3,4,5-tetrahydro-[1,2,4]triazin-6-yl)-phenethyl-amino]-ethyl}-phenoxy)-2-methyl-propionate] had a pEC50 of around 5.00.
On to `CCCCCCCn1nc(OCCCc2cccc(SC(C)(C)C(=O)OCC)c2)c(=O)n(C)c1=O` [Example 32, Ethyl 2-{3-[3-(2-heptyl-4-methyl-3,5-dioxo-2,3,4,5-tetrahydro-[1,2,4]triazin-6-yloxy)-propyl]-phenylsulfanyl}-2-methyl-propionate], for which the pEC50 is 5.52 to 6.00.
Next, `CCCCCCCn1c(=O)c(N(CCCc2ccccc2)CCc2ccc(OC(C)(C)C(=O)OCC)cc2)nn(C)c1=O` [Example 117, Ethyl 2-(4-{2-[(4-heptyl-2-methyl-3,5-dioxo-2,3,4,5-tetrahydro-[1,2,4]triazin-6-yl)-(3-phenyl-propyl)-amino]-ethyl}-phenoxy)-2-methyl-propionate]: around 5.00; `CCCCCCCn1c(=O)c(NCCc2cccc(SC(C)(C)C(=O)OCC)c2)nn(C)c1=O` [Example 61, Ethyl 2-{3-[2-(4-heptyl-2-methyl-3,5-dioxo-2,3,4,5-tetrahydro-[1,2,4]triazin-6-ylamino)-ethyl]-phenylsulfanyl}-2-methyl-propionate]: around 5.52.
On to `CCOC(=O)C(C)(C)Oc1cccc(CCCOc2nn(C)c(=O)n(CCCC(F)(F)F)c2=O)c1` [Example 6, Ethyl 2-methyl-2-(3-{3-[2-methyl-3,5-dioxo-4-(4,4,4-trifluoro-butyl)-2,3,4,5-tetrahydro-[1,2,4]triazin-6-yloxy]-propyl}-phenoxy)-propionate], for which the pEC50 was around 6.52.
Turning to `CCOC(=O)C(C)(C)Oc1cccc(CCCOc2nn(CCCC(F)(F)F)c(=O)n(C)c2=O)c1` [Example 4, Ethyl 2-methyl-2-(3-{3-[4-methyl-3,5-dioxo-2-(4,4,4-trifluoro-butyl)-2,3,4,5-tetrahydro-[1,2,4]triazin-6-yloxy]-propyl}-phenoxy)-propionate], the negative logarithm of the EC50 (pEC50) is below 5.00.
As for `CCCCCCCn1c(=O)c(OCc2ccc(OC(C)(C)C(=O)OCC)cc2)nn(CCCC(F)(F)F)c1=O` [Example 23, Ethyl 2-{4-[4-heptyl-3,5-dioxo-2-(4,4,4-trifluoro-butyl)-2,3,4,5-tetrahydro-[1,2,4]triazin-6-yloxymethyl]-phenoxy}-2-methyl-propionate], the pEC50 is 6.00.
`CCOC(=O)C(C)(C)Sc1cccc(CCCCNc2nn(CCCC(F)(F)F)c(=O)n(C)c2=O)c1` [Example 93, Ethyl 2-methyl-2-(3-{4-[4-methyl-3,5-dioxo-2-(4,4,4-trifluoro-butyl)-2,3,4,5-tetrahydro-[1,2,4]triazin-6-ylamino]-butyl}-phenylsulfanyl)-propionate] showed a pEC50 below 5.00.
`CCOC(=O)C(C)(C)Oc1ccc(OCCNc2nn(CCCC3CCCCC3)c(=O)n(CCCC3CCCCC3)c2=O)cc1` [Example 43, Ethyl 2-(4-{2-[2,4-bis-(3-cyclohexylpropyl)-3,5-dioxo-2,3,4,5-tetrahydro-[1,2,4]triazin-6-ylamino]-ethoxy}-phenoxy)-2-methyl-propionate] gave a negative-log EC50 (pEC50) of around 5.52.
The compound `CCOC(=O)C(C)(C)Oc1cccc(CCOc2nn(C)c(=O)n(CCCC(F)(F)F)c2=O)c1` [Example 3, Ethyl 2-methyl-2-(3-{2-[2-methyl-3,5-dioxo-4-(4,4,4-trifluoro-butyl)-2,3,4,5-tetrahydro-[1,2,4]triazin-6-yloxy]-ethyl}-phenoxy)-propionate] gave a negative-log EC50 (pEC50) of around 5.52.
Next, `CCCCCCCn1nc(NCCCCc2cccc(SC(C)(C)C(=O)OCC)c2)c(=O)n(Cc2ccccc2)c1=O` [Example 101, Ethyl 2-{3-[4-(4-benzyl-2-heptyl-3,5-dioxo-2,3,4,5-tetrahydro-[1,2,4]triazin-6-ylamino)-butyl]-phenylsulfanyl}-2-methyl-propionate]: 5.52 to 6.00.
In the case of `CCCCCCCn1c(=O)c(NCCCCc2cccc(SC(C)(C)C(=O)OCC)c2)nn(CCCC(F)(F)F)c1=O` [Example 97, Ethyl 2-(3-{4-[4-heptyl-3,5-dioxo-2-(4,4,4-trifluoro-butyl)-2,3,4,5-tetrahydro-[1,2,4]triazin-6-ylamino]-butyl}-phenylsulfanyl)-2-methyl-propionate], the pEC50 was 5.52 to 6.00.
As to `CCCCCCCN(CCCCOc1cccc(SC(C)(C)C(=O)OCC)c1)c1nn(C)c(=O)n(C)c1=O` [Example 54, Ethyl 2-(3-{4-[(2,4-Dimethyl-3,5-dioxo-2,3,4,5-tetrahydro-[1,2,4]triazin-6-yl)-heptyl-amino]-butoxy}-phenylsulfanyl)-2-methyl-propionate], the pEC50 was below 5.00.
`CCCCCCCn1c(=O)c(NCCc2ccc(OC(C)(C)C(=O)OCC)cc2)nn(CCCC(F)(F)F)c1=O` [Example 107, Ethyl 2-(4-{2-[4-heptyl-3,5-dioxo-2-(4,4,4-trifluoro-butyl)-2,3,4,5-tetrahydro-[1,2,4]triazin-6-ylamino]-ethyl}-phenoxy)-2-methyl-propionate] had a pEC50 of around 6.00.
`CCOC(=O)C(C)(C)Oc1cccc(CCCNc2nn(CCCC(F)(F)F)c(=O)n(C)c2=O)c1` [Example 62, Ethyl 2-methyl-2-(3-{3-[4-methyl-3,5-dioxo-2-(4,4,4-trifluoro-butyl)-2,3,4,5-tetrahydro-[1,2,4]triazin-6-ylamino]-propyl}-phenoxy)-propionate] had a pEC50 below 5.00.
Consider `CCCCn1c(=O)c(OCCc2ccccc2OC(C)(C)C(=O)OCC)nn(C)c1=O` [Example 1, Ethyl 2-{2-[2-(4-butyl-2-methyl-3,5-dioxo-2,3,4,5-tetrahydro-[1,2,4]triazin-6-yloxy)-ethyl]-phenoxy}-2-methyl-propionate], for which the pEC50 was 5.00 to 5.52.
Compound `CCOC(=O)C(C)(C)Oc1ccccc1CCNc1nn(CCCC(F)(F)F)c(=O)n(CCCC(F)(F)F)c1=O` [Example 55, Ethyl 2-(2-{2-[3,5-Dioxo-2,4-bis-(4,4,4-trifluoro-butyl)-2,3,4,5-tetrahydro-[1,2,4]triazin-6-ylamino]-ethyl}-phenoxy)-2-methyl-propionate] gave a pEC50 below 5.00.
Consider `CCCCCCCn1nc(NCCCCc2cccc(OC(C)(C)C(=O)OC(C)(C)C)c2)c(=O)n(CCCC(F)(F)F)c1=O` [Example 83, Tert-butyl 2-(3-{4-[2-heptyl-3,5-dioxo-4-(4,4,4-trifluoro-butyl)-2,3,4,5-tetrahydro-[1,2,4]triazin-6-ylamino]-butyl}-phenoxy)-2-methyl-propionate], for which the pEC50 is below 5.00.
In the case of `CCCCCCCn1nc(NCCCCc2cccc(SC(C)(C)C(=O)OCC)c2)c(=O)n(CCCCCCC)c1=O` [Example 98, Ethyl 2-{3-[4-(2,4-diheptyl-3,5-dioxo-2,3,4,5-tetrahydro-[1,2,4]triazin-6-ylamino)-butyl]-phenylsulfanyl}-2-methyl-propionate], the pEC50 is below 5.00.
For `CCOC(=O)C(C)(C)Oc1ccc(CCN(CCc2ccccc2)c2nn(C)c(=O)n(C)c2=O)cc1` [Example 114, Ethyl 2-(4-{2-[(2,4-dimethyl-3,5-dioxo-2,3,4,5-tetrahydro-[1,2,4]triazin-6-yl)-phenethyl-amino]-ethyl}-phenoxy)-2-methyl-propionate] the value was around 5.00; for `CCOC(=O)C(C)(C)Oc1cccc(CCNc2nn(C)c(=O)n(CCCC(F)(F)F)c2=O)c1` [Example 58, Ethyl 2-methyl-2-(3-{2-[2-methyl-3,5-dioxo-4-(4,4,4-trifluoro-butyl)-2,3,4,5-tetrahydro-[1,2,4]triazin-6-ylamino]-ethyl}-phenoxy)-propionate], below 5.00; for `CCOC(=O)C(C)(C)Oc1ccc(CCOc2nn(CCCC(F)(F)F)c(=O)n(C)c2=O)cc1` [Example 24, Ethyl 2-methyl-2-(4-{2-[4-methyl-3,5-dioxo-2-(4,4,4-trifluoro-butyl)-2,3,4,5-tetrahydro-[1,2,4]triazin-6-yloxy]-ethyl}-phenoxy)-propionate], below 5.00.
Consider `Cn1nc(NCCCCc2cccc(OC(C)(C)C(=O)OC(C)(C)C)c2)c(=O)n(CCCC(F)(F)F)c1=O` [Example 78, Tert-butyl 2-methyl-2-(3-{4-[2-methyl-3,5-dioxo-4-(4,4,4-trifluoro-butyl)-2,3,4,5-tetrahydro-[1,2,4]triazin-6-ylamino]-butyl}-phenoxy)-propionate], for which the negative-log EC50 (pEC50) was below 5.00.
With `CCCCCCCn1c(=O)c(OCCc2ccc(OC(C)(C)C(=O)OCC)cc2)nn(C)c1=O` [Example 26, Ethyl 2-{4-[2-(4-heptyl-2-methyl-3,5-dioxo-2,3,4,5-tetrahydro-[1,2,4]triazin-6-yloxy)-ethyl]-phenoxy}-2-methyl-propionate], the negative-log EC50 (pEC50) was below 5.00.
